Each structure is given as a SMILES string. “Also recorded” adds a separate entry of the source. Where a name gives a salt, the structure may show the parent alone. Where only a bound is given, the exact number is not on record here.

What all share (type): physicochemical
Data set [1] is described as follows: Dynamic vapor sorption (DVS) of Form I.
Data set [2] can be described thus: Stability (stated property).
Data set [3] can be described thus: Thermogravimetric analysis (TGA) of Form I. Particulars: heated 10°/min. As for the experimental part:
The sample (1-5 mg) was heated 10°/min. on a TA Instruments TGA 2950 (available from TA Instruments of New Castle, Del.). No weight loss (<0.1%) was observed up to 150° C. Decomposition began at approximately 240° C.

The nature of data set [4]: Exposure of crystalline material to air (hygroscopicity). Particulars: sample exposed to air.

With `CN(C)CCC[C@@]1(c2ccc(F)cc2)OCc2cc(C#N)ccc21` [Form I, (S)-1-[3-(dimethylamino)propyl]-1-(4-fluorophenyl)-1,3-dihydro-5-isobenzofuran carbonitrile hydrobromide], the hygroscopicity result in data set [1] (after water uptake at 80% relative humidity) is recorded as “very hygroscopic”; in data set [1] (relative humidity less than (about) 70%, hydrobromide), “not hygroscopic; also recorded: non-hygroscopic”; in data set [4], “non-hygroscopic”. The water absorbed entry in data set [1] (at 80% relative humidity, corresponds to 14%) was “about 3.6 mol-equivalent of water”; in data set [1] (at 95% relative humidity), ~9 mol-equivalent of water; in data set [1] (first run, at 80% relative humidity) it was 14%; in data set [1] (first run, until the relative humidity exceeded 70%) it was “no water was absorbed”. In data set [2], the stability result is “stable”. The decomposition began result in data set [3] is “approximately 240 °C”. In data set [3] (up to 150° C.), this compound came in with a weight loss of less than 0.1%.

Values taken from patent US20050137255A1, “Crystalline escitalopram hydrobromide and methods for preparing the same” (H. Lundbeck A/S, priority 2002, published 2005).
